Results: the Deep4Chem optical property database

Experiment: solvent given as SMILES

Question: For `CC1=C(c2ccccc2)C(C)=[N+]2C1=C(c1ccccc1)c1c(C)c(-c3ccccc3)c(C)n1[B-]2(F)F`, which fluorescence lifetime (in Cc1ccccc1) is on record?
Answer: 4.1 ns

Question: With `Cc1ccc(O)c(-c2nc(C)c3n2CCCC3)c1` as the compound, how does the fluorescence lifetime (in ClCCl) read?
Answer: 2.3 ns

Question: For `COc1ccc(-c2csc(/C(C#N)=C/c3ccncc3)n2)cc1`, which fluorescence lifetime (in CC#N) is on record?
Answer: 1.92 ns

Question: For `O=S(=O)(c1ccc(N2c3ccccc3[Si](c3ccccc3)(c3ccccc3)c3ccccc32)cc1)c1ccc(N2c3ccccc3[Si](c3ccccc3)(c3ccccc3)c3ccccc32)cc1`, which fluorescence lifetime (in c1cc(-n2c3ccccc3c3ccccc32)cc(-n2c3ccccc3c3ccccc32)c1) is on record?
Answer: 4 ns

Question: What does the source list for `CC1=[N+]2C(=C(c3ccc(N(c4ccccc4)c4ccccc4)cc3)c3ccc(C)n3[B-]2(F)F)C=C1c1cc2n(c1)[B-](F)(F)[N+]1=CC=CC1=C2c1c(C)cc(C)cc1C`?
Answer: fluorescence lifetime (in C1CCCCC1): 2.6 ns; fluorescence lifetime (in CCOC(C)=O): 0.72 ns

Question: For `O=S(=O)(c1ccc(-c2ccc(-n3c4ccccc4c4ccccc43)cc2)cc1)c1ccc(-c2ccc(-n3c4ccccc4c4ccccc43)cc2)cc1`, which fluorescence lifetime (in Cc1ccccc1) is on record?
Answer: 2.55 ns

Question: Which fluorescence lifetime (in ClCCl) does the source give for `Cc1nc(-c2cc(N)ccc2O)n2c1CCCC2` here?
Answer: 0.834 ns

Question: For `FC(F)(F)C(F)(F)C(F)(F)C(F)(F)C(F)(F)C(F)(F)CCOc1nnc(Cl)nn1`, which fluorescence lifetime (in ClCCl) is on record?
Answer: 153 ns

Question: And the fluorescence lifetime (in OCC(F)(F)F)?
Answer: 152 ns

Question: For `COc1ccc(C2=C3C=c4c(oc5ccccc45)=[N+]3[B-](F)(F)n3c2cc2c4ccccc4oc23)cc1`, which fluorescence lifetime (in C1CCCCC1) is on record?
Answer: 4.1 ns

Question: What about the fluorescence lifetime (in CCOC(C)=O) of the same compound?
Answer: 4.22 ns

Question: What about the fluorescence lifetime (in CO) of the same compound?
Answer: 4.14 ns

Question: For `CC1(C)c2ccccc2-c2cc3c4ccccc4n(-c4ccc(-c5nc(-c6ccccc6)nc(-c6ccccc6)n5)cc4)c3cc21`, which fluorescence lifetime (in O=P(c1ccccc1)(c1ccccc1)c1ccccc1Oc1ccccc1P(=O)(c1ccccc1)c1ccccc1) is on record?
Answer: 9.3 ns

Question: For `COc1ccc(/C=C/c2ccccc2)cc1OC`, which fluorescence lifetime (in CC#N) is on record?
Answer: 0.5 ns

Question: Which fluorescence lifetime (in CC#N) does the source give for `O=C(O)c1ccc(-c2ccc(-c3nc(-c4ccccc4)c4ccccn34)cc2)s1` here?
Answer: 1.5 ns

Question: Which fluorescence lifetime (in Cc1ccccc1) does the source give for `Cc1cc(C)c(B(c2ccc(N(c3ccccc3)c3ccccc3)cc2)c2c(C)cc(C)cc2C)c(C)c1` here?
Answer: 4 ns

Question: For `COc1ccc2c(c1)-c1cc(OC)ccc1C2=O`, which fluorescence lifetime (in C1CCCCC1) is on record?
Answer: 1.8 ns

Question: And the fluorescence lifetime (in CC#N)?
Answer: 15.7 ns

Question: What about the fluorescence lifetime (in CCO) of the same compound?
Answer: 0.8 ns

Question: Which fluorescence lifetime (in CCO) does the source give for `Cc1cc2cc3cc(C)c(C)cc3cc2cn1` here?
Answer: 18 ns

Question: Which fluorescence lifetime (in ClCCl) does the source give for `CC1=C(I)C(C)=[N+]2C1=C(c1c(-c3ccccn3)nc3ccccn13)c1c(C)cc(C)n1[B-]2(F)F` here?
Answer: 0.3 ns

Question: What does the source list for `c1ccc2c(c1)[nH]c1ccccc12`?
Answer: fluorescence lifetime (in CC#N): 15.1 ns; fluorescence lifetime (in CCCCCC): 14.2 ns; fluorescence lifetime (in CCO): 16.1 ns

Question: Which fluorescence lifetime (in ClCCl) does the source give for `F[B-]1(F)n2c(c3cccc4cccc2c43)=Nc2cccc[n+]21` here?
Answer: 7.1 ns

Question: With `CCCCn1c(-c2ccc(-c3nnc(-c4ccc5ccccc5c4)o3)cc2)nc(-c2ccccc2)c1-c1ccccc1` as the compound, how does the fluorescence lifetime (in ClCCl) read?
Answer: 1.74 ns

Question: Which fluorescence lifetime (in Cc1ccccc1) does the source give for `CCCCCCCCCCCCn1cccc1/C=C/c1ccc(/C=C/c2cccn2CCCCCCCCCCCC)cc1` here?
Answer: 1.06 ns

Question: For `COc1ccc(-n2c(C)ccc2C)cc1`, which fluorescence lifetime (in CC#N) is on record?
Answer: 5 ns

Question: For `COc1cc(OC)c2cc(C#N)c(=N)oc2c1`, which fluorescence lifetime (in ClCCl) is on record?
Answer: 2.4 ns

Question: For `CN(C)c1ccc(/C=C/c2ccc(-c3nnc(-c4ccc(-c5cc6ccccc6s5)cc4)o3)cc2)cc1`, which fluorescence lifetime (in Cc1ccccc1) is on record?
Answer: 0.52 ns

Question: And the fluorescence lifetime (in ClC(Cl)Cl)?
Answer: 0.53 ns

Question: Which fluorescence lifetime (in ClCCl) does the source give for `CC(=O)c1ccc(-c2cc(C)[o+]c(C)c2)cc1` here?
Answer: 2 ns

Question: With `Fc1nc(F)c(F)c(C#Cc2ccccc2C#Cc2c(F)c(F)nc(F)c2F)c1F` as the compound, how does the fluorescence lifetime (in CC#N) read?
Answer: 1.81 ns

Question: Which fluorescence lifetime (in ClCCl) does the source give for `N#Cc1ccc(-n2c(-c3ccc(-c4ccc(-n5c6ccccc6c6ccccc65)cc4)s3)nc3c4ccccc4c4ccccc4c32)c2ccccc12` here?
Answer: 4.3 ns

Question: For `CC1=CC(C)=[N+]2C1=C(C)c1cccn1[B-]2(F)F`, which fluorescence lifetime (in CCCCCC) is on record?
Answer: 6.1 ns

Question: What about the fluorescence lifetime (in CO) of the same compound?
Answer: 6.31 ns

Question: What about the fluorescence lifetime (in ClCCl) of the same compound?
Answer: 5.93 ns

Question: With `COC(=O)c1cc(=O)n(C)c2cc(-c3ccc(OC)cc3)sc12` as the compound, how does the fluorescence lifetime (in ClCCl) read?
Answer: 2.3 ns

Question: With `C(=C\c1ccc(-c2ccncc2)cc1)/c1ccc(-c2ccncc2)cc1` as the compound, how does the fluorescence lifetime (in ClCCl) read?
Answer: 0.85 ns

Question: For `c1ccc(N(c2ccccc2)c2ccc(N(c3ccccc3)c3ccc4ccc5c(N(c6ccccc6)c6ccc(N(c7ccccc7)c7ccccc7)cc6)ccc6ccc3c4c65)cc2)cc1`, which fluorescence lifetime (in ClCCl) is on record?
Answer: 2.7 ns

Question: What does the source list for `Cc1cc2c(o1)c(C)cc1ccc(=O)oc12`?
Answer: fluorescence lifetime (in C1CCCCC1): 0.02 ns; fluorescence lifetime (in C1COCCO1): 0.02 ns; fluorescence lifetime (in CC#N): 0.02 ns; fluorescence lifetime (in CCO): 2.3 ns; fluorescence lifetime (in OCC(F)(F)F): 2.8 ns

Question: Which fluorescence lifetime (in ClC(Cl)Cl) does the source give for `CCCCCCCCCCCCOc1cc2c3c(ccc4c5c(OCCCCCCCCCCCC)cc6c7c(ccc(c1c34)c75)C(=O)N(C1CCCCC1)C6=O)C(=O)N(C1CCCCC1)C2=O` here?
Answer: 5.4 ns

Question: With `Nc1nc2c([nH]c(=O)n2[C@H]2C[C@H](O)[C@@H](CO)O2)c(=O)[nH]1` as the compound, how does the fluorescence lifetime (in O) read?
Answer: 0.0008 ns

Question: What does the source list for `CCN(CC)c1ccc2c(C(F)(F)F)cc(=O)oc2c1`?
Answer: fluorescence lifetime (in C1CCCCC1): 4.1 ns; fluorescence lifetime (in CC#N): 0.6 ns; fluorescence lifetime (in CCO): 0.85 ns; fluorescence lifetime (in CCOC(C)=O): 4.6 ns; fluorescence lifetime (in OCC(O)CO): 2.7 ns

Question: With `c1ccc2c(c1)-c1ccccc1C21c2ccccc2-c2c1c1c3ccccc3ccc1c1ccccc21` as the compound, how does the fluorescence lifetime (in Cc1ccccc1) read?
Answer: 3.14 ns

Question: With `CC1(C)c2ccccc2N(c2ccc(-c3nnc(-c4ccccc4)o3)cc2)c2ccccc21` as the compound, how does the fluorescence lifetime (in Cc1ccccc1) read?
Answer: 7 ns

Question: What about the fluorescence lifetime (in c1ccc(-n2c(-c3c(-n4c5ccccc5c5ccccc54)cccc3-n3c4ccccc4c4ccccc43)nc3ccccc32)cc1) of the same compound?
Answer: 7.8 ns

Question: Which fluorescence lifetime (in C1CCCCC1) does the source give for `CCC1=C(C)C2=C(C)c3c(I)c(I)cn3[B-](F)(F)[N+]2=C1C` here?
Answer: 0.259 ns

Question: And the fluorescence lifetime (in CC(C)=O)?
Answer: 0.127 ns

Question: And the fluorescence lifetime (in CCO)?
Answer: 0.125 ns

Question: And the fluorescence lifetime (in CCOC(C)=O)?
Answer: 0.16 ns

Question: And the fluorescence lifetime (in CO)?
Answer: 0.122 ns

Question: And the fluorescence lifetime (in OCC(F)(F)F)?
Answer: 0.147 ns
